Source: patent publication US20240109910A1, “HEXAHYDRO-5,8-EPOXYCYCLOHEPTA[c]PYRAZOLE DERIVATIVES USEFUL AS MODULATORS OF THE CB1 AND / OR CB2 RECEPTORS” (JANSSEN PHARMACEUTICA NV, priority 2019, published 2024)

Legend:
[1] = biological target: hCB2 receptor (Homo sapiens, UniProt P34972); test: Agonism of CB2 by detection of cAMP using HTRF; assay type: cell-based; conditions: CHO cells stably expressing CB2 receptor; for EC50: cAMP HTRF, forskolin-stimulated, average if tested more than once, read-out: hCB2 CHO EC50; for Emax: normalized to DMSO and maximal activation (5 nM CP55940)
Method: (§1) Method for Assaying Agonism of CB1 or CB2 by Detection of cAMP Using Homogeneous Time-Resolved Fluorescence (HTRF®)
(§2) CHOP-K1 cells stably expressing the CB1 receptor (PerkinElmer, ES-110-C) or the CB2 receptor (PerkinElmer, ES-111-CF) were seeded into 384 well white TC-treated plates (Greiner 781080) at 7000 cells per well in Ham's media (Gibco #31765-035) supplemented with 10% FBS (Gibco #16000-044) and 500 μg/mL Geneticin (Gibco #10131-027) and cultured overnight. The next day, plates were washed one time in assay buffer (HBSS with Ca^2+ and Mg^2+ (Corning #21-023-CV)+20 mM HEPES (Corning #25-060-Cl) and 0.01% BSA (Sigma A2153)). In a separate compound plate (Greiner 781201-906), 50 nL of test compound or DMSO was transferred using the Echo 550 (Labcyte), then 40 μL/well of assay buffer with 0.5 mM IBMX, 2 μM Forskolin (Sigma F3917), and 0.01% BSA was added. For the CB1 assay, assay buffer was dumped from the cell plate and fresh assay buffer containing 0.5 mM IBMX (Sigma I5679) was added at 30 μL/well, and the plate was incubated for 1 hr at 37° C., 5% CO2. Following the IBMX pre-treatment step, buffer was dumped from the cell plate, and 20 μL/well of the assay buffer with test compound was transferred into the cell plate with a subsequent incubation of 20 min at room temperature. Reagents for cAMP detection (cisbio 62AM4PEJ) were prepared and subsequently transferred to the cell plate at 20 μL/well. Following a 1 hr incubation at room temperature, the plate was read on the Pherastar FX (BMG, excitation 320 nm, detection at 620 nm (donor) and 665 nm (acceptor)). The ratio of signal at 665 nm/620 nm was determined for each well in the plate. For each assay day, a cAMP standard curve was run in parallel to assess the range of response and determine the concentration of cAMP in each well. Control wells (n=16 of each) with no activation of CB1 receptor (DMSO) and maximal activation (5 nM CP55940, Sigma) were used to normalize the data and to determine signal-to-background ratio and Z′. For the CB2 assay, conditions were as described above for the CB1 assay, except that the IBMX preincubation step was not used and that the 20 min compound incubation step occurred in the incubator at 37° C., 5% CO2.
(§3) EC50 values were calculated from dose response curves by nonlinear regression analysis using PRISM software.
(§4) Representative compounds of the present invention were tested according to the procedures described in Biological Example 1 above, with results as listed in Table 3, below. If a compound was tested more than once (due to multiple samples or batches), then the value listed in Table 3 below represents the average of the measured values.

[2] = biological target: hCB1 receptor (Homo sapiens, UniProt P21554); test: Agonism of CB1 by detection of cAMP using HTRF; assay type: cell-based; conditions: CHO cells stably expressing CB1 receptor; for EC50: cAMP HTRF, forskolin-stimulated, average if tested more than once, read-out: hCB1 CHO EC50; for Emax: normalized to DMSO and maximal activation (5 nM CP55940)
Method: as §1, §2, §3, §4

Sequence of hCB1 receptor (P21554 whole entry): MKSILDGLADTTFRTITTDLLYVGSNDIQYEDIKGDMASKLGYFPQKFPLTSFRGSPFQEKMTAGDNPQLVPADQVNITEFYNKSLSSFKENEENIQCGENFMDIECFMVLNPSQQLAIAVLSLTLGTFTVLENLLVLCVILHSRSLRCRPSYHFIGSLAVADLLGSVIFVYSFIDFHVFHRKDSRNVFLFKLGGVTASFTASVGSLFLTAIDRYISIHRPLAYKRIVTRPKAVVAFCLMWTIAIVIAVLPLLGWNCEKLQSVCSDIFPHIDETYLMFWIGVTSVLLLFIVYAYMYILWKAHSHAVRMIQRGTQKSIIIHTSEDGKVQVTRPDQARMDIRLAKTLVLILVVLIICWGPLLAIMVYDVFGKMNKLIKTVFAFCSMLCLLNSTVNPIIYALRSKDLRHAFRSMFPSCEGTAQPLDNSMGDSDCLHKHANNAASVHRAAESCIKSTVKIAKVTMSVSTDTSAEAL
Sequence of hCB2 receptor (P34972 whole entry): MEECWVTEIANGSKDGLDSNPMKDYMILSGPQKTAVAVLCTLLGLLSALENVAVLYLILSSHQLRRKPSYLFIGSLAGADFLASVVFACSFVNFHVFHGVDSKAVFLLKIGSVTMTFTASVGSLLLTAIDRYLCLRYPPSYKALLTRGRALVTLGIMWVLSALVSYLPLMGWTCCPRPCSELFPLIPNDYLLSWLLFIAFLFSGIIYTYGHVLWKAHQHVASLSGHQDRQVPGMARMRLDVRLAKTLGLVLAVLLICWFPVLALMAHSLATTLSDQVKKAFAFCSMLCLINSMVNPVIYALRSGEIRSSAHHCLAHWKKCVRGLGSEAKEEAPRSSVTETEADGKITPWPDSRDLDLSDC

Structure (SMILES)	EC50 [1] [nM]	Emax [1] [%]	EC50 [2] [nM]	Emax [2] [%]
O=C(NC12CCC(CC1)CC2)c1nn(-c2c[n+]([O-])ccn2)c2c1CC1CCC2O1 (stereo not shown) [Compound 22, 3-(3-(bicyclo[2.2.2]octan-1-ylcarbamoyl)-5,6,7,8-tetrahydro-5,8-epoxycyclohepta[c]pyrazol-1(4H)-yl)pyrazine 1-oxide]	0.02	99.7	48.5	96.5
O=C(NC1(C(F)(F)F)CCC1)c1nn(-c2cnccn2)c2c1CC1CCC2O1 (stereo not shown) [Compound 10, 1-(pyrazin-2-yl)-N-(1-(trifluoromethyl)cyclobutyl)-1,4,5,6,7,8-hexahydro-5,8-epoxycyclohepta[c]pyrazole-3-carboxamide]	0.04	100	571	90.3
CC(C)(C)c1noc(-c2nn(-c3cnccn3)c3c2CC2CCC3O2)n1 (stereo not shown) [Compound 37, 3-(3-(tert-butyl)-1,2,4-oxadiazol-5-yl)-1-(pyrazin-2-yl)-1,4,5,6,7,8-hexahydro-5,8-epoxycyclohepta[c]pyrazole]	0.22	99.2	177	34.8
CC(C)(C)NC(=O)c1nn(-c2cnccn2)c2c1CC1CCC2O1 (stereo not shown) [Compound 3, N-(tert-butyl)-1-(pyrazin-2-yl)-1,4,5,6,7,8-hexahydro-5,8-epoxycyclohepta[c]pyrazole-3-carboxamide]	3.8	99.7	2080	94.8
O=C(NC12CC(C1)C2)c1nn(-c2c[n+]([O-])ccn2)c2c1CC1CCC2O1 (stereo not shown) [Compound 20, 3-(3-(bicyclo[1.1.1]pentan-1-ylcarbamoyl)-5,6,7,8-tetrahydro-5,8-epoxycyclohepta[c]pyrazol-1(4H)-yl)pyrazine 1-oxide]	0.05	100	1780	91
CC(C)(C)c1nc(-c2nn(-c3c[n+]([O-])ccn3)c3c2CC2CCC3O2)no1 (stereo not shown) [Compound 23, 3-(3-(5-(tert-butyl)-1,2,4-oxadiazol-3-yl)-5,6,7,8-tetrahydro-5,8-epoxycyclohepta[c]pyrazol-1(4H)-yl)pyrazine 1-oxide]	0.1	100	–	–
CC(C)(CO)NC(=O)c1nn(-c2cnccn2)c2c1CC1CCC2O1 (stereo not shown) [Compound 11, N-(1-hydroxy-2-methylpropan-2-yl)-1-(pyrazin-2-yl)-1,4,5,6,7,8-hexahydro-5,8-epoxycyclohepta[c]pyrazole-3-carboxamide]	7.1	99.2	–	–
CC(C)(C)NC(=O)c1c2c(nn1-c1cnccn1)CC1CCC2O1 (stereo not shown) [Compound 46]	1650	85.8	–	–
CC(C)(C)NC(=O)c1c2c(nn1-c1ccc(F)cc1F)C1CCC(C2)O1 (stereo not shown) [Compound 2, N-(tert-butyl)-2-(2,4-difluorophenyl)-2,4,5,6,7,8-hexahydro-5,8-epoxycyclohepta[c]pyrazole-3-carboxamide]	2980	72.8	–	–
CC(C)(C)NC(=O)c1c2c(nn1-c1c[n+]([O-])ccn1)C1CCC(C2)O1 (stereo not shown) [Compound 30, 3-(3-(tert-butylcarbamoyl)-5,6,7,8-tetrahydro-5,8-epoxycyclohepta[c]pyrazol-2(4H)-yl)pyrazine 1-oxide]	7970	66.3	–	–
CC(C)(CO)NC(=O)c1nn(-c2c[n+]([O-])ccn2)c2c1CC1CCC2O1 (stereo not shown) [Compound 19, 3-(3-((1-hydroxy-2-methylpropan-2-yl)carbamoyl)-5,6,7,8-tetrahydro-5,8-epoxycyclohepta[c]pyrazol-1(4H)-yl)pyrazine 1-oxide]	1	100	–	–
CC(C)(C)c1nnc(-c2nn(-c3c[n+]([O-])ccn3)c3c2CC2CCC3O2)[s+]1[O-] (stereo not shown) [Compound 28, 3-(3-(5-(tert-butyl)-1-oxido-1,3,4-thiadiazol-2-yl)-5,6,7,8-tetrahydro-5,8-epoxycyclohepta[c]pyrazol-1(4H)-yl)pyrazine 1-oxide]	0.74	99	–	–
